The text below walks through data of US20250034216A1, “STEREOSELECTIVE COVALENT LIGANDS FOR ONCOGENIC AND IMMUNOLOGICAL PROTEINS” (The Scripps Research Institute, priority 2021, published 2025).

Test in all cases: IA-DTB cysteine engagement
What all share (assay type): binding
Conditions in all cases: 22Rv1 cells, 20 μM probe, 1 h, relative to DMSO

Assay [1] addresses T1, APOOL_C79 (Homo sapiens, UniProt Q6UXV4).
T1 construct: endogenous in cells; host or cells: 22Rv1
T1 sequence (Q6UXV4 28-268): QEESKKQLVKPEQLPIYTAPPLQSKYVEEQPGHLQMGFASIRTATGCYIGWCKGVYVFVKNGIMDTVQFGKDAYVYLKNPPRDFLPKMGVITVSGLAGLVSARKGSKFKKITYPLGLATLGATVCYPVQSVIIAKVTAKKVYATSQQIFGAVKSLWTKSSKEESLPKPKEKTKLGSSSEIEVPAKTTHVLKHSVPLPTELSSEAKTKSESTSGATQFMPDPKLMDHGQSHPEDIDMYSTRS
The method, boiled down:
(§1)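 In-situ probe treatment of cells; lysate 2 mg/mL, IA-DTB 1 h RT; MeOH/CHCl3 precipitation, DTT/iodoacetamide, trypsin; streptavidin enrichment; TMT labeling, high-pH fractionation. Ratio = TMT reporter intensity / mean DMSO channels, median-normalized.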

Assay [2] has as its target T2, BCKDK_C118 (Homo sapiens, UniProt O14874).
T2 construct: endogenous in cells; host or cells: 22Rv1
In outline: as §1

Assay [3] has as its target T3, CNOT4_C175 (Homo sapiens, UniProt O95628).
T3 construct: endogenous in cells; host or cells: 22Rv1
T3 sequence (O95628 1-575): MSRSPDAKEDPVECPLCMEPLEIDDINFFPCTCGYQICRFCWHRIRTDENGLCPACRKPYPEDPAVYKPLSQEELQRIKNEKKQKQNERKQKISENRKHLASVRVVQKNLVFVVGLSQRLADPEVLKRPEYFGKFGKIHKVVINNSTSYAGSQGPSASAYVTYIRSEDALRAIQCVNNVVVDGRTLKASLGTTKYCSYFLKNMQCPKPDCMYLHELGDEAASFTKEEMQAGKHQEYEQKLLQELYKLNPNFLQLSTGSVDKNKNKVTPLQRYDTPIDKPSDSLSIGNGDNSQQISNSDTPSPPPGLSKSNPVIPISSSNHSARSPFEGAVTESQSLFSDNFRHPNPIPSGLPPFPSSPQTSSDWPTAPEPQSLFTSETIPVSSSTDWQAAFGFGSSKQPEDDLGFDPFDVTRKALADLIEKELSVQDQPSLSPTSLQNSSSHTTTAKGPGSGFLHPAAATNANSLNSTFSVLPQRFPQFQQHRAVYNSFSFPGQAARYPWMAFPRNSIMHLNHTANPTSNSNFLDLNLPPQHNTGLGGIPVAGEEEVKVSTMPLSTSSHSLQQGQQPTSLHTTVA
The method, boiled down: as §1

The target of assay [4] is T4, ALG3_C21 (Homo sapiens, UniProt Q92685).
T4 construct: endogenous in cells; host or cells: 22Rv1
T4 sequence (Q92685 1-438): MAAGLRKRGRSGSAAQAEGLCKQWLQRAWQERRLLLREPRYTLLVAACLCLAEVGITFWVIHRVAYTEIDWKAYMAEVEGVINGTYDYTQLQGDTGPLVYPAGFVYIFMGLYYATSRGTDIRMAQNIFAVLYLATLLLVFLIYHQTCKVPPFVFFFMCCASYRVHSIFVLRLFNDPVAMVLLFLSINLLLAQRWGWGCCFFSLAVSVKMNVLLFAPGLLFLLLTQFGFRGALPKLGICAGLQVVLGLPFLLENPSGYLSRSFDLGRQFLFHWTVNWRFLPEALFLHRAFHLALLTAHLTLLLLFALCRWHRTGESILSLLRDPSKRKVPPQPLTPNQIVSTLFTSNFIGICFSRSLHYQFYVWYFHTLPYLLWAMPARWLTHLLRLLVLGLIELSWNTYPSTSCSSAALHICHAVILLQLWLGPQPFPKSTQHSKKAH
The method, boiled down:
as §1

In the case of `C=CC(=O)N1C[C@H](c2ccc(Br)cc2)[C@@H]1C(=O)Nc1cccc2cccnc12` [MY-1B, (2R,3S)-1-acryloyl-3-(4-bromophenyl)-N-(quinolin-8-yl)azetidine-2-carboxamide], the “% engagement APOOL_C79” value in assay [1] is 73%. Also, the “% engagement BCKDK_C118” value in assay [2] amounted to 57.75%. Moreover, the “% engagement CNOT4_C175” value in assay [3] is listed as −15%. Further, in assay [4], the “% engagement ALG3_C21” value worked out at 68%.
In the same order, the values of `C=CC(=O)N1C[C@H](c2ccc(Br)cc2)[C@H]1C(=O)Nc1cccc2cccnc12` [MY-3B, (2S,3S)-1-acryloyl-3-(4-bromophenyl)-N-(quinolin-8-yl)azetidine-2-carboxamide] are 69%, 78.5%, 76% and 84.75%.
Regarding `C=CC(=O)N1C[C@H](c2ccc(Br)cc2)[C@H]1C(=O)Nc1cccc2cccnc12` [MY-3A, (2S,3S)-1-acryloyl-3-(4-bromophenyl)-N-(quinolin-8-yl)azetidine-2-carboxamide], in assay [1], the “% engagement APOOL_C79” value amounted to 48%. In assay [2], the “% engagement BCKDK_C118” value was found to be 43%. Besides, the “% engagement CNOT4_C175” value in assay [3] is on record as 76.5%. Further, in assay [4], the “% engagement ALG3_C21” value was 74.5%.
The like results for `C=CC(=O)N1C[C@@H](c2ccc(Br)cc2)[C@H]1C(=O)Nc1cccc2cccnc12` [MY-1A, (2S,3R)-1-acryloyl-3-(4-bromophenyl)-N-(quinolin-8-yl)azetidine-2-carboxamide] were, in that order, 54.25%, 55.5%, 0% and 90.25%.
